Assay results published in article PMC10732257 (Oncotarget, 2023).

How the values were obtained:
[1] = target: T1, b2 (adrenoceptor) (Homo sapiens, UniProt P07550); test: GPCR agonist action testing; format: cell-based
T1 construct: Wuxi AppTech (contract laboratory)
Description: (§1) Supplementary Table 2: Results of GPCR agonist action testing of GFH009 administered at a
(§2) Agonist action against GPCR type shown below
(§3) Target % Agonist Effect @ Max Dose
(§4) M1 (muscarinic Ach) −2.18
(§5) M2 (muscarinic Ach) −0.63

[2] = target: T2, CB1 (cannabinoid) (Homo sapiens, UniProt P21554); test: GPCR agonist action testing; format: cell-based
T2 construct: Wuxi AppTech (contract laboratory)
Description: as §1, §2, §3, §4, §5

[3] = target: T3, H1 (histamine) (Homo sapiens, UniProt P35367); test: GPCR agonist action testing; format: cell-based
T3 construct: Wuxi AppTech (contract laboratory)
Description: as §1, §2, §3, §4, §5

[4] = target: M1 (muscarinic Ach) (Homo sapiens, UniProt P11229); test: GPCR agonist action testing; format: cell-based
Description: as §1, §2, §3, §4, §5

[5] = target: T4, 5-HT1B (serotonin) (Homo sapiens, UniProt P28222); test: GPCR agonist action testing; format: cell-based
T4 construct: Wuxi AppTech (Shanghai, China)
Description: as §1, §2, §3, §4, §5

[6] = target: T5, b1 (adrenoceptor) (Homo sapiens, UniProt P08588); test: GPCR agonist action testing; format: cell-based
T5 construct: Wuxi AppTech (contract laboratory)
Description: as §1, §2, §3, §4, §5

[7] = target: T6, V1A (vasopressin) (Homo sapiens, UniProt P37288); test: GPCR agonist action testing; format: cell-based
Description: as §1, §2, §3, §4, §5

[8] = target: T7, a1a (adrenoceptor) (Homo sapiens, UniProt P35348); test: GPCR agonist action testing; format: cell-based
T7 construct: Wuxi AppTech (contract laboratory)
Description: as §1, §2, §3, §4, §5

[9] = target: T8, a2a (adrenoceptor) (Homo sapiens, UniProt P08913); test: GPCR agonist action testing; format: cell-based
T8 construct: Wuxi AppTech (contract laboratory)
Description: as §1, §2, §3, §4, §5

[10] = target: T9, 5-HT2B (serotonin) (Homo sapiens, UniProt P41595); test: GPCR agonist action testing; format: cell-based
T9 construct: Wuxi AppTech (Shanghai, China)
Description: as §1, §2, §3, §4, §5

[11] = target: T10, CB2 (cannabinoid) (Homo sapiens, UniProt P34972); test: GPCR agonist action testing; format: cell-based
T10 construct: Wuxi AppTech (contract laboratory)
Description: as §1, §2, §3, §4, §5

[12] = target: T11, D1 (dopamine) (Homo sapiens, UniProt P21728); test: GPCR agonist action testing; format: cell-based
T11 construct: Wuxi AppTech (contract laboratory)
Description: as §1, §2, §3, §4, §5

[13] = target: T12, 5-HT1A (serotonin) (Homo sapiens, UniProt P08908); test: GPCR agonist action testing; format: cell-based
T12 construct: Wuxi AppTech (Shanghai, China)
Description: as §1, §2, §3, §4, §5

[14] = target: T1, b2 (adrenoceptor); test: GPCR competitive antagonist (off-target inhibitory action) testing; format: cell-based
Description: (§6) Supplementary Table 3: Results of off-target inhibitory action testing of GFH009 administered at
(§7) Competitive antagonist activity against GPCR type shown below

[15] = target: T2, CB1 (cannabinoid); test: as above; format: cell-based
Description: as §6, §7

[16] = target: T3, H1 (histamine); test: as above; format: cell-based
Description: as §6, §7

[17] = tested on: AD2 (adenosine); test: as above; format: cell-based
Description: as §6, §7

[18] = target: T13, D2 (dopamine) (Homo sapiens, UniProt P14416); test: as above; format: cell-based
T13 construct: Wuxi AppTech (contract laboratory)
Description: as §6, §7

[19] = target: T4, 5-HT1B (serotonin); test: as above; format: cell-based
Description: as §6, §7

[20] = target: T5, b1 (adrenoceptor); test: as above; format: cell-based
Description: as §6, §7

[21] = target: T14, CCKa (Homo sapiens, UniProt P32238); test: as above; format: cell-based
T14 construct: Wuxi AppTech (contract laboratory)
Description: as §6, §7

[22] = target: T15, 5-HT2A (serotonin) (Homo sapiens, UniProt P28223); test: as above; format: cell-based
T15 construct: Wuxi AppTech (Shanghai, China)
Description: as §6, §7

[23] = target: T16, ETA (endothelin) (Homo sapiens, UniProt P25101); test: as above; format: cell-based
T16 construct: Wuxi AppTech (contract laboratory)
Description: as §6, §7

[24] = target: T6, V1A (vasopressin); test: as above; format: cell-based
Description: as §6, §7

[25] = target: T7, a1a (adrenoceptor); test: as above; format: cell-based
Description: as §6, §7

[26] = target: T8, a2a (adrenoceptor); test: as above; format: cell-based
Description: as §6, §7

[27] = target: T9, 5-HT2B (serotonin); test: as above; format: cell-based
Description: as §6, §7

[28] = target: T10, CB2 (cannabinoid); test: as above; format: cell-based
Description: as §6, §7

[29] = target: T11, D1 (dopamine); test: as above; format: cell-based
Description: as §6, §7

[30] = target: H2 (histamine) (Homo sapiens, UniProt P25021); test: as above; format: cell-based
Description: as §6, §7

[31] = target: op-d (opioid) (Homo sapiens, UniProt P41143); test: as above; format: cell-based
Description: as §6, §7

[32] = target: T12, 5-HT1A (serotonin); test: as above; format: cell-based
Description: as §6, §7

[33] = target: op-m (opioid) (Homo sapiens, UniProt P35372); test: as above; format: cell-based
Description: as §6, §7

[34] = target: op-k (opioid) (Homo sapiens, UniProt P41145); test: as above; format: cell-based
Description: as §6, §7

[35] = tested on: MV-4-11 cells; test: Western blot of CDK9-regulated signaling in cultured cells; format: cell-based, human; settings: 4-hour incubation
Description: Figure 4 Effect of GFH009 on CDK9-dependent gene expression in cells. Western blot of MV-4-11 cells after exposure to different concentrations of GFH009 or Enitociclib for 4 hours was analyzed. A representative blot was shown from 3 independent experiments.
The effect of GFH009 on CDK9-regulated signaling pathways in human hematological malignancy cell lines was assessed via western blot. Cultured MV-4-11 cells, derived from human blastic AML cells (ATCC), were incubated at 37°C and 5% CO2 for 4 hours at final concentrations of 1 μM, 0.3 μM, 0.1 μM, 0.03 μM, and 0.01 μM for both GFH009 and enitociclib. Protein isolates were collected from pelleted cells as previously described, semi-quantified via western blot and analyzed using Image Studio 5.0 (LI-COR Biosciences, Lincoln, NE, USA).

COC[C@@H](C)NC1CCC(Nc2cc(-c3csc(NCC4(C#N)CCOCC4)n3)c(Cl)cn2)CC1 (some centres unmarked) [GFH009]
% Agonist Effect @ Max Dose (12 µM) [1]: −0.6% | % Agonist Effect @ Max Dose (12 µM) [2]: −0.7% | % Agonist Effect @ Max Dose (12 µM) [3]: 1.55% | % Agonist Effect @ Max Dose (12 µM) [4]: −2.18% | % Agonist Effect @ Max Dose (12 µM) [5]: −51.01% | % Agonist Effect @ Max Dose (12 µM) [6]: 4.53% | % Agonist Effect @ Max Dose (12 µM) [7]: 0.59% | % Agonist Effect @ Max Dose (12 µM) [8]: 4.58% | % Agonist Effect @ Max Dose (12 µM) [9]: −3.87% | % Agonist Effect @ Max Dose (12 µM) [10]: 4.55% | % Agonist Effect @ Max Dose (12 µM) [11]: 0.23% | % Agonist Effect @ Max Dose (12 µM) [12]: −1.49% | % Agonist Effect @ Max Dose (12 µM) [13]: −0.33% | % Inhibitory Effect @ Max Dose (10 µM) [14]: −3.46% | % Inhibitory Effect @ Max Dose (10 µM) [15]: −9.21% | % Inhibitory Effect @ Max Dose (10 µM) [16]: 12.37% | % Inhibitory Effect @ Max Dose (10 µM) [17]: −13.58% | % Inhibitory Effect @ Max Dose (10 µM) [18]: 10.34% | % Inhibitory Effect @ Max Dose (10 µM) [19]: 4.71% | % Inhibitory Effect @ Max Dose (10 µM) [20]: 30.48% | % Inhibitory Effect @ Max Dose (10 µM) [21]: 16.26% | % Inhibitory Effect @ Max Dose (10 µM) [22]: −7.10% | % Inhibitory Effect @ Max Dose (10 µM) [23]: −0.32% | % Inhibitory Effect @ Max Dose (10 µM) [24]: −1.57% | % Inhibitory Effect @ Max Dose (10 µM) [25]: 68.39% | % Inhibitory Effect @ Max Dose (10 µM) [26]: 5.16% | % Inhibitory Effect @ Max Dose (10 µM) [27]: −24.98% | % Inhibitory Effect @ Max Dose (10 µM) [28]: −8.86% | % Inhibitory Effect @ Max Dose (10 µM) [29]: 1.10% | % Inhibitory Effect @ Max Dose (10 µM) [30]: −18.49% | % Inhibitory Effect @ Max Dose (10 µM) [31]: −15.46% | % Inhibitory Effect @ Max Dose (10 µM) [32]: 12.31% | % Inhibitory Effect @ Max Dose (10 µM) [33]: 20.94% | % Inhibitory Effect @ Max Dose (10 µM) [34]: 11.54% | Expression levels of MCL-1 and c-Myc ([35]; 0.01-1 μM, western blot): dose-dependently decreased | Expression level of phospho-Rpb1 CTD Ser2 ([35]; increasing concentration, western blot): gradually decreased | Expression levels of phospho-Rpb1 CTD Ser5 and total Rpb1 ([35]; vs DMSO-only control): not significantly different | Concentration inducing cleavage of caspase-3 and PARP ([35]; western blot): greater than 0.1 μM
